Patent EP4786487A1, “PEPTIDE” (Peptidream Inc, priority 2023, dated 2025)
Read-outs that look alike come from different tables or passages of the source. Starred links: 1 amine or outer side, 2 acyl side, 3 side chain; linkers in the order of their positions; H or OH if unused. Positions of bridges follow the written chain, without caps; N, C: chain ends. Non-standard residues stand in square brackets, D forms with d. Residues, ends and D or L forms follow the SMILES beside them. Groups on a side chain read outwards from the residue. *: point of attachment. Phe(3-OCH2COOH) = N[C@@H](Cc1cccc(OCC(=O)O)c1)C(=O)O; Phe(4-COOH) = N[C@@H](Cc1ccc(C(=O)O)cc1)C(=O)O; Trp(7-aza) = N[C@@H](Cc1c[nH]c2ncccc12)C(=O)O; Piperazinyl(4-CH2COOH) = O=C(O)CN1CCN(*)CC1; Bip = N[C@@H](Cc1ccc(-c2ccccc2)cc1)C(=O)O; Gly(decyl) = CCCCCCCCCC[C@H](N)C(=O)O; Gly(N(CH2)3COOH) = O=C(O)CCCNCC(=O)O; X1 = CCCCCCC[C@H](N[*:1])C(=O)[*:2]; NMeCha = CN[C@@H](CC1CCCCC1)C(=O)O; NMeF = CN[C@@H](Cc1ccccc1)C(=O)O; 4Pal = N[C@@H](Cc1ccncc1)C(=O)O; NMeE = CN[C@@H](CCC(=O)O)C(=O)O; Carboxymethyl = O=C(O)C*; NMeA = CN[C@@H](C)C(=O)O; CO = O=C([*:1])[*:2]; Sar = CNCC(=O)O

Key:
Format in all cases: cell-based
GDF-11 = molecular target: T1, GDF-11 (Homo sapiens, UniProt O95390); test: Reporter gene assay for myostatin signaling in HepG2 cell line, Evaluation Procedure (1), GDF-11 inhibition; details: read-out: IC50 (Luciferase) GDF-11 HepG2
T1 construct: purchased R&D systems 1958-GD-G8/CF
T1 sequence (O95390 299-407): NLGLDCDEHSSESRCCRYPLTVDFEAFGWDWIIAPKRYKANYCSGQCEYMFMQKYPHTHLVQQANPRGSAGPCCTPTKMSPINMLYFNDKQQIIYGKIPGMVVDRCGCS
How it was run: (§1)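 HepG2 cells transfected with pGL3(CAGA)12-luciferase reporter, serum-starved in 0.1% BSA medium, then stimulated with myostatin or GDF-11 plus 4-fold peptide dilutions (0.006–100 nmol/L for myostatin, 0.12–2000 nmol/L for GDF-11) for 20–24 h at 37 °C. Luminescence read with One-Glo; IC50 calculated.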

Myostatin [1] = test: Reporter gene assay for myostatin signaling in HepG2 cell line, Evaluation Procedure (1), myostatin inhibition; details: GDF-11 IC50 versus Myostatin IC50
How it was run: as §1

Myostatin [2] = molecular target: T2, Myostatin (Homo sapiens, UniProt O14793); test: as above; details: read-out: IC50 (Luciferase) Myostatin HepG2
T2 construct: active myostatin (also called mature myostatin) is a homodimer consisting of two C-terminal growth factor domains; purchased R&D systems 788-G8/CF
T2 sequence (O14793 267-375): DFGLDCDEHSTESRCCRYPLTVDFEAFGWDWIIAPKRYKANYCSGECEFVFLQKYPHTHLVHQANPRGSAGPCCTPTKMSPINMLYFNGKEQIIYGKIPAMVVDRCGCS
How it was run: as §1

| SMILES | IC50 (GDF-11; Method A: GDF-11 10 ng/mL) [nM] | Selectivity (Myostatin [1]; Method A) | IC50 (Myostatin [2]; Method A: Myostatin 10 ng/mL) [nM] | IC50 (GDF-11; Method B: GDF-11 1 ng/mL) [nM] | Selectivity (Myostatin [1]; Method B) | IC50 (Myostatin [2]; Method B: Myostatin 1 ng/mL) [nM] |
| --- | --- | --- | --- | --- | --- | --- |
| CCCCCCC[C@@H]1NC(=O)[C@H](Cc2ccccc2)N(C)C(=O)[C@H](CCCNC(=N)N)NC(=O)[C@H](Cc2ccc(C(=O)O)cc2)NC(=O)[C@H](Cc2cccc(OCC(=O)O)c2)NC(=O)CN(C)C(=O)[C@H]([C@@H](C)CC)NC(=O)[C@H](Cc2ccccc2)N(C)C(=O)[C@H](Cc2ccc(O)cc2)NC(=O)[C@H](Cc2c[nH]c3ccccc23)NC(=O)[C@H](C)NC(=O)CN(CCCC(=O)O)C(=O)CSC[C@H](C(=O)O)NC(=O)[C@H](Cc2ccccc2)N(C)C(=O)[C@H](C)N(C)C1=O [Myostatin_99_v165] ({CH2CO}-[Gly(N(CH2)3COOH)]AWY[NMeF]I[Sar][Phe(3-OCH2COOH)][Phe(4-COOH)]R[NMeF][X1][NMeA][NMeF][dC]-OH; thioether N-15) | 1240 | 89 | 14 | – | – | – |
| CCCCCCC[C@@H]1NC(=O)[C@H](CC2CCCCC2)N(C)C(=O)[C@H](CCCNC(=N)N)NC(=O)[C@H](Cc2ccc(C(=O)O)cc2)NC(=O)[C@H](CCCCNC(=O)N2CCN(CC(=O)O)CC2)NC(=O)[C@H]2CCCN2C(=O)[C@H]([C@@H](C)CC)NC(=O)[C@H](CC2CCCCC2)N(C)C(=O)[C@H](Cc2ccc(O)cc2)NC(=O)[C@H](Cc2c[nH]c3ccccc23)NC(=O)[C@@H](CCC(=O)O)NC(=O)[C@H](C)NC(=O)CSC[C@H](C(=O)N2CCN(CC(=O)O)CC2)NC(=O)[C@H](Cc2ccccc2)N(C)C(=O)[C@H](C)N(C)C1=O [Myostatin_99_v248] ({CH2CO}-A[dE]WY[NMeCha]I[dP]K([CO-Piperazinyl(4-CH2COOH)])[Phe(4-COOH)]R[NMeCha][X1][NMeA][NMeF][dC]-{Piperazinyl(4-CH2COOH)}; thioether N-15) | 3530 | 164 | 21.5 | – | – | – |
| CCCCCCC[C@@H]1NC(=O)[C@H](Cc2ccccc2)N(C)C(=O)[C@H](CCCNC(=N)N)NC(=O)[C@H](Cc2ccc(C(=O)O)cc2)NC(=O)[C@H](Cc2ccc(O)cc2)NC(=O)[C@H](C)N(C)C(=O)[C@H]([C@@H](C)CC)NC(=O)[C@H](Cc2ccccc2)N(C)C(=O)[C@H](Cc2ccc(O)cc2)NC(=O)[C@H](Cc2c[nH]c3ccccc23)NC(=O)[C@H](C)NC(=O)CN(CCCC(=O)O)C(=O)CSC[C@H](C(=O)O)NC(=O)[C@H](Cc2ccccc2)N(C)C(=O)[C@H](C)N(C)C1=O [Myostatin_99_v181] ({CH2CO}-[Gly(N(CH2)3COOH)]AWY[NMeF]I[NMeA]Y[Phe(4-COOH)]R[NMeF][X1][NMeA][NMeF][dC]-OH; thioether N-15) | 194 | 43 | 4.5 | – | – | – |
| CCCCCCC[C@@H]1NC(=O)[C@H](Cc2ccccc2)N(C)C(=O)[C@H](CCCNC(=N)N)NC(=O)[C@H](Cc2ccc(OCC(=O)O)cc2)NC(=O)[C@H](Cc2cccc(OCC(=O)O)c2)NC(=O)[C@H](C)N(C)C(=O)[C@H]([C@@H](C)CC)NC(=O)[C@H](Cc2ccccc2)N(C)C(=O)[C@H](Cc2ccc(O)cc2)NC(=O)[C@H](Cc2c[nH]c3ccccc23)NC(=O)[C@H](C)NC(=O)CN(CCCC(=O)O)C(=O)CSC[C@H](C(=O)O)NC(=O)[C@H](Cc2ccccc2)N(C)C(=O)[C@H](C)N(C)C1=O [Myostatin_99_v150] ({CH2CO}-[Gly(N(CH2)3COOH)]AWY[NMeF]I[NMeA][Phe(3-OCH2COOH)]Y(Carboxymethyl)R[NMeF][X1][NMeA][NMeF][dC]-OH; thioether N-15) | 395 | 232 | 1.7 | – | – | – |
| CC[C@H](C)[C@@H]1NC(=O)[C@H](Cc2ccccc2)N(C)C(=O)[C@H](Cc2ccc(O)cc2)NC(=O)[C@H](Cc2c[nH]c3ncccc23)NC(=O)[C@H](C)NC(=O)CN(CCCC(=O)O)C(=O)CSC[C@H](C(=O)O)NC(=O)[C@H](Cc2ccccc2)N(C)C(=O)[C@H](C)N(C)C(=O)[C@H](CC(C)C)NC(=O)[C@H](Cc2ccccc2)N(C)C(=O)[C@H](CCCNC(=N)N)NC(=O)[C@H](Cc2ccc(C(=O)O)cc2)NC(=O)[C@H](Cc2ccccc2)NC(=O)CN(C)C1=O [Myostatin_99_Variant_20-OH] ({CH2CO}-[Gly(N(CH2)3COOH)]A[Trp(7-aza)]Y[NMeF]I[Sar]F[Phe(4-COOH)]R[NMeF]L[NMeA][NMeF][dC]-OH; thioether N-15) | 2010 | 45 | 44.8 | – | – | – |
| CC[C@H](C)[C@@H]1NC(=O)[C@H](Cc2ccccc2)N(C)C(=O)[C@H](Cc2ccc(O)cc2)NC(=O)[C@H](Cc2c[nH]c3ncccc23)NC(=O)[C@H](C)NC(=O)CN(CCCC(=O)O)C(=O)CSC[C@H](C(=O)O)NC(=O)[C@H](Cc2ccccc2)N(C)C(=O)[C@H](C)N(C)C(=O)[C@H](CC(C)C)NC(=O)[C@H](Cc2ccccc2)N(C)C(=O)[C@H](CCCNC(=N)N)NC(=O)[C@H](Cc2ccc(C(=O)O)cc2)NC(=O)[C@H](Cc2ccncc2)NC(=O)CN(C)C1=O [Myostatin_99_Variant_21-OH] ({CH2CO}-[Gly(N(CH2)3COOH)]A[Trp(7-aza)]Y[NMeF]I[Sar][4Pal][Phe(4-COOH)]R[NMeF]L[NMeA][NMeF][dC]-OH; thioether N-15) | 4320 | 41 | 106 | – | – | – |
| CCCCCCC[C@@H]1NC(=O)[C@H](Cc2ccccc2)N(C)C(=O)[C@H](CCCNC(=N)N)NC(=O)[C@H](Cc2ccc(C(=O)O)cc2)NC(=O)[C@H](Cc2cccc(OCC(=O)O)c2)NC(=O)CN(C)C(=O)[C@H]([C@@H](C)CC)NC(=O)[C@H](CC2CCCCC2)N(C)C(=O)[C@H](Cc2ccc(O)cc2)NC(=O)[C@H](Cc2c[nH]c3ccccc23)NC(=O)[C@@H](CCC(=O)O)NC(=O)[C@H](C)NC(=O)CSC[C@H](C(=O)N2CCN(CC(=O)O)CC2)NC(=O)[C@H](Cc2ccccc2)N(C)C(=O)[C@H](C)N(C)C1=O [Myostatin_99_v255] ({CH2CO}-A[dE]WY[NMeCha]I[Sar][Phe(3-OCH2COOH)][Phe(4-COOH)]R[NMeF][X1][NMeA][NMeF][dC]-{Piperazinyl(4-CH2COOH)}; thioether N-15) | 191 | 119 | 1.6 | – | – | – |
| CCCCCCC[C@@H]1NC(=O)[C@H](Cc2ccccc2)N(C)C(=O)[C@H](CCCNC(=N)N)NC(=O)[C@H](Cc2ccc(C(=O)O)cc2)NC(=O)[C@H](Cc2cccc(OCC(=O)O)c2)NC(=O)[C@H](C)N(C)C(=O)[C@H]([C@@H](C)CC)NC(=O)[C@H](Cc2ccccc2)N(C)C(=O)[C@H](Cc2ccc(O)cc2)NC(=O)[C@H](Cc2c[nH]c3ccccc23)NC(=O)[C@H](CO)NC(=O)[C@H](C)NC(=O)CSC[C@H](C(=O)O)NC(=O)[C@H](Cc2ccccc2)N(C)C(=O)[C@H](C)N(C)C1=O [Myostatin_99_v197] ({CH2CO}-ASWY[NMeF]I[NMeA][Phe(3-OCH2COOH)][Phe(4-COOH)]R[NMeF][X1][NMeA][NMeF][dC]-OH; thioether N-15) | 438 | 129 | 3.4 | – | – | – |
| CCCCCCC[C@@H]1NC(=O)[C@H](Cc2ccccc2)N(C)C(=O)[C@H](CCCNC(=N)N)NC(=O)[C@H](Cc2ccc(C(=O)O)cc2)NC(=O)[C@H](Cc2ccc(O)cc2)NC(=O)CN(C)C(=O)[C@H]([C@@H](C)CC)NC(=O)[C@H](Cc2ccccc2)N(C)C(=O)[C@H](Cc2ccc(O)cc2)NC(=O)[C@H](Cc2c[nH]c3ccccc23)NC(=O)[C@H](C)NC(=O)[C@H](C)NC(=O)CSC[C@H](C(=O)O)NC(=O)[C@H](Cc2ccccc2)N(C)C(=O)[C@H](C)N(C)C1=O [Myostatin_99_v193] ({CH2CO}-AAWY[NMeF]I[Sar]Y[Phe(4-COOH)]R[NMeF][X1][NMeA][NMeF][dC]-OH; thioether N-15) | 57 | 57 | 1 | – | – | – |
| CCCCCCC[C@@H]1NC(=O)[C@H](Cc2ccccc2)N(C)C(=O)[C@H](CCCNC(=N)N)NC(=O)[C@H](Cc2ccc(C(=O)O)cc2)NC(=O)[C@H](Cc2ccc(O)cc2)NC(=O)CN(C)C(=O)[C@H]([C@@H](C)CC)NC(=O)[C@H](Cc2ccccc2)N(C)C(=O)[C@H](Cc2ccc(O)cc2)NC(=O)[C@H](Cc2ccc(-c3ccccc3)cc2)NC(=O)[C@H](C)NC(=O)CN(CCCC(=O)O)C(=O)CSC[C@H](C(=O)O)NC(=O)[C@H](Cc2ccccc2)N(C)C(=O)[C@H](C)N(C)C1=O [Myostatin_99_v179] ({CH2CO}-[Gly(N(CH2)3COOH)]A[Bip]Y[NMeF]I[Sar]Y[Phe(4-COOH)]R[NMeF][X1][NMeA][NMeF][dC]-OH; thioether N-15) | 163 | 108 | 1.5 | – | – | – |
| CCCCCCCCCC[C@@H]1NC(=O)[C@H](Cc2ccccc2)N(C)C(=O)[C@H](CCCNC(=N)N)NC(=O)[C@H](Cc2ccc(C(=O)O)cc2)NC(=O)[C@H](Cc2cccc(OCC(=O)O)c2)NC(=O)[C@H]2CCCN2C(=O)[C@H]([C@@H](C)CC)NC(=O)[C@H](Cc2ccccc2)N(C)C(=O)[C@H](Cc2ccc(O)cc2)NC(=O)[C@H](Cc2c[nH]c3ccccc23)NC(=O)[C@H](C)NC(=O)[C@H](C)NC(=O)CSC[C@H](C(=O)N2CCN(CC(=O)O)CC2)NC(=O)[C@H](Cc2ccccc2)N(C)C(=O)[C@H](CCC(=O)O)N(C)C1=O [Myostatin_99_v309] ({CH2CO}-AAWY[NMeF]I[dP][Phe(3-OCH2COOH)][Phe(4-COOH)]R[NMeF][Gly(decyl)][NMeE][NMeF][dC]-{Piperazinyl(4-CH2COOH)}; thioether N-15) | – | – | – | 25 | 287 | 0.09 |
